Structures are written as SMILES. Several values for one entry are separate records, joined by “and”; a condition that tells them apart may be missing. Equal values may be shown once. Read-outs that look alike come from different tables or passages of the source.

The values below come from patent publication US11311512B2, “Lymph directing prodrugs” (priority 2014, dated 2022).

Data set [1] can be described thus: Pharmacokinetic study in rats, testosterone plasma concentrations after oral gavage. Particulars: for Tmax / AUC0-24 h / Cmax: conscious carotid artery cannulated SD female rats; for AUC0-24 h / Cmax: normalized to 2 mg/kg equivalent testosterone dose. Here is the method:
In order to assess the oral bioavailability of the compounds of the invention, pharmacokinetic studies were conducted in rats and dogs. […] The rats were then allowed to regain consciousness and fasted overnight prior to the commencement of experiments with free access to water. […] The oral formulation of Compound 2 contained 3 mg of the compound, 20 mg oleic acid and 12.5 mg Tween 80 dispersed in 1 mL PBS. Blood samples were collected from the carotid artery cannula from 5 min prior to administration up to 24 h post-dosing and centrifuged at 5000 rpm for 5 min to separate plasma. […] Plasma samples were stored at −80° C. prior to assay by HPLC-MS-MS. In this case samples were assayed for free drug (i.e. non-glyceride associated drug) and were not hydrolysed prior to assay (as was the case with the lymph samples).
FIG. 12 illustrates dose-normalized testosterone plasma concentrations following oral gavage of formulations to conscious, carotid artery cannulated female SD rats. Formulations contained 1 mg of TU, or 2 mg of compounds of the invention containing testosterone dispersed in 40 mg oleic acid, 25 mg Tween 80 and 2 ml PBS. Doses are normalized to a 2 mg/kg equivalent dose of testosterone. Data are shown as mean±SEM for all groups (n=4 or 3 for each group). The embedded figure is the plot of the dose-normalized plasma AUC0-24h (nmol×h/L) of testosterone in the form of a bar graph.

The test system of data set [2] is porcine pancreatic lipase. In words: In vitro hydrolysis by porcine pancreatic lipase. The data set is classed as in vitro ADME. Particulars: 37° C., simulated intestinal micellar solution pH 6.5, up to 180 min. Here is the method:
To provide for higher throughput of experiments, unless otherwise stated, in vitro hydrolysis of TST related compounds was performed via incubation with porcine pancreatic lipase. This provides a more reproducible source of pancreatic enzymes, facilitates enhanced experimental throughput and is also a greater challenge than collected rat enzymes (since enzyme activity in rat intestinal fluid is low). Briefly, pancreatic lipase solution was prepared prior to the hydrolysis experiment by dispersion of 1 g porcine pancreatin in 5 ml of lipolysis buffer and 16.9 μl of 5M NaOH. The suspension was mixed well and centrifuged at 3500 rpm for 15 minutes at 5° C. to provide a supernatant. An amount of 1000 ml of lipolysis buffer was prepared with 0.474 g of tris-maleate (2 mM), 0.206 g of CaCl2.H2O (1.4 mM) and 8.775 g of NaCl (150 mM) adjusted with NaOH to pH 6.5. To assess the potential for prodrug hydrolysis in the intestine, 20 μl of prodrug solution (1 mg/ml dissolved in acetonitrile), 900 μl of simulated intestinal micellar solution [prepared with 0.783 g of NaTDC (3 mM) and 0.291 g of phosphatidyl choline (0.75 mM) in 500 ml lipolysis buffer] and 100 μl of enzyme solution were incubated at 37° C. 20 μl samples of the incubation solution were taken at 0, 5, 10, 15, 30, 60, 90, 120 and 180 minutes post incubation and added to 180 μl of ACN to stop lipolysis. The mixture was vortexed and centrifuged at 5000 rpm for 5 minutes to precipitate proteins prior to analysis. The supernatant was analysed by HPLC-MS for residual compound concentrations, and the potential products of compound hydrolysis were analysed.
On incubation with digestive enzymes the monoglycerides forms of the prodrugs are formed very rapidly. The stability in simulated intestinal conditions is therefore better assessed by the stability of the monoglycerides form that is generated by the initial digestion process. The monoglycerides form must remain intact to be absorbed and re-esterified in the enterocyte prior to entry into the lymphatics. […] This is consistent with the increase in lymphatic transport of Compound 18 when compared to Compound 10, and the high extent of lymphatic transport of Compound 16 in FIG. 4.

Data set [3] in a line: Pharmacokinetic study in greyhound dogs, testosterone plasma concentrations after oral administration. Particulars: for Cmax / Tmax / AUC0-24 h: oral capsules; for Cmax / AUC0-24 h: normalized to 2 mg/kg equivalent testosterone dose. The data set is classed as in vivo. Here is the method:
For the dog studies, female greyhound dogs were held in a large animal research facility for at least 5 days prior to the commencement of studies. The dogs were allowed to acclimatise for at least 4 days prior to commencing the study. The dogs were fasted for 12 h up to 30 min prior to drug administration. For the fed state studies (n=4 for TU or Compound 13), dogs received 680 g of standard commercial dog food containing 5% fat min prior to drug administration. In the fasted study (n=1 for Compound 13), the dog remained fasted until after 4 h post-dose. Water was available ad libitum throughout the study for all dogs. On the study day, a 20 gauge intravenous catheter was inserted into a cephalic vein to allow blood sampling. The dogs were free to move around (not restrained) after cannulation. For the fed state studies, Andriol Testocaps (the commercial TU product) or Compound 13 was given to the dogs. Andriol Testocaps were supplied by Merck Sharp & Dohme (Australia) Pty Limited and were formulated as soft gelatin capsule containing a 12.0% (w/w) solution of TU in lauroglycol FCC/castor oil [40:60% (w/w)] with the individual capsule composition being 40 mg of TU, lauroglycol FCC, castor oil, gelatin, glycerol, and sunset yellow (E110). Compound 13 was prepared in a long-chain lipid based self-emulsifying drug delivery system (SEDDS) that consisted of 30.5% w/w soybean oil, 30.5% w/w Maisine 35-1, 31.6% w/w Cremophor EL and 7.4% w/w ethanol. Formulations were filled into hard gelatin capsules. Two capsules of Andriol Testocaps containing 80 mg TU or two capsules of Compound 13 containing a total dose of 90 mg Compound 13 dissolved in 2 g of the SEDDS formulation were administrated to the fed greyhound dog by placing the capsules as far posterior to the pharynx as possible, closing the mouth and rubbing the throat to stimulate swallowing. Subsequently 50 mL of water was administered orally via a syringe. Two capsules of Compound 13 formulation were also administrated to the fasted dogs for fasted state studies. After oral administration, blood samples (approx. 3 mL each) were taken via the cephalic vein cannula from 5 min prior to administration up to 10 hours post-dosing. The patency of the catheters was maintained by flushing with a small volume of heparinised saline (1-2 IU/mL) after each blood sample was withdrawn. Blood samples at 24 h were taken by venepuncture. Plasma was separated by centrifugation and aliquots of each plasma sample were transferred into eppendorf tubes and store at −80° C. prior to analysis by LC-MS-MS.

Data set [4] is described as follows: In vitro hydrolysis by rat digestive fluid (bile and pancreatic fluid). The data set is classed as in vitro ADME. Conditions: 37° C., drug-loaded lipid formulation, up to 180 min. Here is the method:
In vitro hydrolysis of MPA related compounds was performed via incubation with rat digestive fluid. Rat digestive fluid was collected from anesthetized rats via cannulation of the common bile-pancreatic duct immediately prior to the entry of the duct into the duodenum (i.e. below the point of entry of pancreatic secretions). This allowed simultaneous collection of bile and pancreatic fluid. The digestive fluid was collected continuously for 2 h, during which time a blank lipid formulation (prepared as described in the rat lymphatic transport studies but without the addition of drug) was infused into the duodenum at a rate of 2.8 ml/h to mimic conditions following drug administration. Bile and pancreatic fluid was maintained at 37° C. and used within 0.5 h of collection for in vitro prodrug hydrolysis experiments. The hydrolysis experiments were conducted via incubation (at 37° C.) of 0.375 mL of rat digestive fluid with 0.625 ml of the drug-loaded lipid formulations (as described in the rat lymphatic transport studies). The volume ratio of digestive fluid to formulation mimicked the flow rate of bile and pancreatic fluid (˜1.5 mL/h) and the infusion rate of the intraduodenal formulations (2.8 mL/h) during the in vivo lymphatic transport studies. Aliquots of 10 μL (samples taken at 0, 2, 5, 10, 15, 30, 60, 90, 120, 180 min) were added to 990 μL of acetonitrile:water (4:1, v/v) to stop lipolysis, vortexed for 1 min and centrifuged at 4500 g for 5 min to precipitate proteins prior to analysis. The supernatant was analysed by HPLC-MS for residual compound concentrations, and the potential products of compound hydrolysis were analysed.
On incubation with digestive enzymes the monoglycerides forms of the prodrugs are formed very rapidly. The stability in simulated intestinal conditions is therefore better assessed by the stability of the monoglycerides form that is generated by the initial digestion process. The monoglycerides form must remain intact to be absorbed and re-esterified in the enterocyte prior to entry into the lymphatics. […]

For data set [5] the following is noted: for Fold increase (compared with MPA dosed group): lymphatic transport of total MPA derivatives. The procedure:
Lipid formulations containing the compound of interest were then administered to the animals, the lymph collected and drug concentrations in the lymph subsequently quantified.
Lipid-based formulations of the compounds of the invention or control compounds were prepared as previously described (Trevaskis, N. L. et al., Pharmaceutical Research, 2005, 22(11), 1863-1870). Briefly, approximately 2 mg of the compound (1 mg in the case of Compound 35 and Compound 1), 40 mg oleic acid and 25 mg Tween 80 were mixed in a glass vial until equilibrated (gentle heat (below 50° C.) may be applied for a short period).
[…] This was to eliminate the potential for the relatively high and variable levels of endogenous testosterone in male rats interfering with the quantification of exogenously dosed testosterone. Rats (240-320 g) were maintained on a standard diet and fasted overnight with free access to water prior to experiments. Anaesthetised rats were placed on a heated pad at 37° C. and cannulas were inserted into the duodenum (for formulation administration and rehydration), mesenteric lymph duct (for lymph collection) and carotid artery (for blood collection) as previously described (Edwards et al. Advanced Drug Delivery Reviews 2001, 50(1), 45-60). Post-surgery, rats were re-hydrated for 0.5 h via intraduodenal infusion of normal saline at 2.8 mL/h. The lipid formulations were infused into the duodenum at 2.8 mL/h for 2 h, after which the infusion was changed to 2.8 mL/h normal saline for the remainder of the experiment. Lymph was continuously collected for 6 to 8 h into pre-weighed Eppendorf tubes containing 10 μL of 1,000 IU/mL heparin. The collection tubes were changed hourly and lymph flow was measured gravimetrically. Aliquots of hourly lymph samples were stored at −80° C. prior to assay.
Drug concentration in lymph is expressed as total drug and includes free drug and drug associated with different glycerides. This is assayed by hydrolysis of lymph (to liberate drug from any re-esterified glycerides) prior to assessment of free drug.
FIG. 1 illustrates the cumulative lymphatic transport of total testosterone related derivatives (% of administered dose) versus time in anaesthetised mesenteric lymph duct cannulated female SD rats following intraduodenal infusion of formulations from 0 to 2 h. Each Formulation contained 2 mg of the exemplified compound or the control, testosterone undecanoate (TU), dispersed in 40 mg oleic acid, 25 mg Tween 80 and 5.6 ml PBS.

[6] abbreviates: testosterone in plasma, oral gavage.
The mark [7] stands for this setting: greyhound dog, fasted state (n = 1).
Where [8] appears, read: anaesthetised, mesenteric lymph-duct cannulated male SD rats, intraduodenal infusion 0-2 h, cumulative over 8 h.
Setting [9] is: male SD rats, intraduodenal infusion.

For the molecule `CCCCCCCCCCCCCCCC(=O)OCC(COC(=O)CCCCCCCCCCCCCCC)OC(=O)CCCCCCCCC(=O)O[C@H]1CC[C@H]2[C@@H]3CCC4=CC(=O)CC[C@]4(C)[C@H]3CC[C@]12C` [Compound 13], the “systemic exposure of parent testosterone (dose-normalised plasma AUC0-24h), fold greater than after Compound 41 or Compound 10” value in data set [1] (oral administration, SD female rats) amounted to 10 fold. The Tmax was found to be 0.9 ± 0.1 h in data set [1] (setting [6]); 2.5 h in data set [3] (setting [7]); 1.8 ± 0.3 h in data set [3] (greyhound dogs, fed state). Further, the AUC0-24 h in data set [1] (setting [6]) was 187.1 ± 35.8 nmol·h/L; in data set [3] (setting [7]), 1026.8 nmol·h/L; in data set [3] (greyhound dogs, fed state), 1116.6 ± 32.4 nmol·h/L. The peak concentration (Cmax) in data set [1] (setting [6]) came to 197 ± 53.4 nM; in data set [3] (conscious greyhound dogs, fed state, TU as Andriol Testocaps, Compound 13 in SEDDS), 455 ± 9.4 nM; in data set [3] (setting [7]), 386 nM. In addition, the “stability of the monoglyceride form during in vitro incubation with porcine pancreatic lipase” value in data set [2] was “not highly stable”. Further, the “AUC0-24 h fold increase compared with TU group” value in data set [3] (greyhound dog, fasted state (n = 1), dose-normalized) is 7.3 fold.
On to `CCCCCCCCCCCCCCCC(=O)OCC(COC(=O)CCCCCCCCCCCCCCC)OC(=O)CC(C)CC(=O)O[C@H]1CC[C@H]2[C@@H]3CCC4=CC(=O)CC[C@]4(C)[C@H]3CC[C@]12C` (stereo partly drawn) [Compound 18], for which, in data set [1] (testosterone in plasma, oral gavage, SD female rats, dose-normalized), the “AUC0-24 h fold increase compared with TU group” value amounted to 0.3 fold. Also, in data set [1] (setting [6]), the Tmax turned out to be 1.3 ± 0.2 h, the AUC0-24 h is 2.0 ± 0.1 nmol·h/L and the Cmax was found to be 1.8 ± 0.3 nM. Besides, the “stability of the monoglyceride form during in vitro incubation with freshly collected rat bile and pancreatic fluid” value in data set [4] is “significantly stabilised the monoglyceride intermediates”. Moreover, the “Transport of total TST derivatives in lymph (% of dose)” value in data set [5] (anaesthetised, mesenteric lymph-duct cannulated female SD rats, intraduodenal infusion 0-2 h, cumulative over 8 h) is on record as 28.0 ± 3.4 % of dose. The “lymphatic transport, fold higher than straight chain counterpart Compound 10” value in data set [5] (female SD rats, intraduodenal infusion) is on record as “approximately 2 fold”. In data set [5] (lymphatic transport of total TST derivatives, female SD rats, intraduodenal infusion), the “Fold increase (compared with control group dosed with TU)” value worked out at 14.9 fold.
Turning to `CCCCCCCCCCCCCCCC(=O)OCC(COC(=O)CCCCCCCCCCCCCCC)OC(=O)CCCCOC(=O)CC/C(C)=C/Cc1c(O)c2c(c(C)c1OC)COC2=O` [Compound 31], in data set [4], the “stability of the monoglyceride form during in vitro incubation with freshly collected rat bile and pancreatic fluid” value is recorded as “relatively rapidly degraded”. Moreover, the “Transport of total MPA derivatives in lymph (% of dose)” value in data set [5] (setting [8]) was 8.2 % of dose and 8.2 ± 1.3 % of dose. Besides, the “Fold increase (compared with MPA dosed group)” value in data set [5] (setting [9]) is 48.9 fold.
Take `CCCCCCCCCCCCCCCC(=O)OCC(COC(=O)CCCCCCCCCCCCCCC)OC(=O)CCCCCOC(=O)CC/C(C)=C/Cc1c(O)c2c(c(C)c1OC)COC2=O` [Compound 32]: the “stability of the monoglyceride form during in vitro incubation with freshly collected rat bile and pancreatic fluid” value in data set [4] was “relatively rapidly degraded”. The “Transport of total MPA derivatives in lymph (% of dose)” value in data set [5] (setting [8]) was 9.6 % of dose and 9.6 ± 1.4 % of dose; in data set [5] (male SD rats, intraduodenal infusion, co-administration with 0.6 mg of JZL184 and 9 μg of orlistat), 18.8 % of dose. Moreover, the “Fold increase (compared with MPA dosed group)” value in data set [5] (setting [9]) was 57.5 fold.
